Data published in patent publication US10912771B1, “Methods for the administration of certain VMAT2 inhibitors” (Neurocrine Biosciences, Inc., priority 2017, dated 2021).
Entries after “also recorded” stand apart in the source; their conditions may differ. Read-outs that look alike come from different tables or passages of the source.

What was measured:
Dopamine D2(s) = Dopamine D2(s) (Homo sapiens, UniProt P14416); assay: Cerep screen, Dopamine D2(s); conditions: radioligand binding assays and broad panel screen
Dopamine D2(s), sequence (P14416 1-414 isoform P14416-2): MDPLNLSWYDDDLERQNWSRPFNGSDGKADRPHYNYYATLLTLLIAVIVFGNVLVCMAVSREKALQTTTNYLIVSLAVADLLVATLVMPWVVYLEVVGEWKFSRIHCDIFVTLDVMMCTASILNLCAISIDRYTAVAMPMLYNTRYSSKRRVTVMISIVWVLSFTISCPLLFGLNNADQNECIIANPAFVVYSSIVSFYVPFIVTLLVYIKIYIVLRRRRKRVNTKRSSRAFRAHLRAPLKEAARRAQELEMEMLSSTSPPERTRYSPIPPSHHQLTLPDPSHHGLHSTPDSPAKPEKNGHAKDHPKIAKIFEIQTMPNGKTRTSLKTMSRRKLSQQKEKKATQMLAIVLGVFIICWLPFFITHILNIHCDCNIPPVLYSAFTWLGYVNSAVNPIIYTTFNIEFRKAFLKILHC

Dopamine D1 = Dopamine D1 (Homo sapiens, UniProt P21728); assay: Cerep screen, Dopamine D1; conditions: radioligand binding assays and broad panel screen
Dopamine D1, sequence (P21728 whole entry): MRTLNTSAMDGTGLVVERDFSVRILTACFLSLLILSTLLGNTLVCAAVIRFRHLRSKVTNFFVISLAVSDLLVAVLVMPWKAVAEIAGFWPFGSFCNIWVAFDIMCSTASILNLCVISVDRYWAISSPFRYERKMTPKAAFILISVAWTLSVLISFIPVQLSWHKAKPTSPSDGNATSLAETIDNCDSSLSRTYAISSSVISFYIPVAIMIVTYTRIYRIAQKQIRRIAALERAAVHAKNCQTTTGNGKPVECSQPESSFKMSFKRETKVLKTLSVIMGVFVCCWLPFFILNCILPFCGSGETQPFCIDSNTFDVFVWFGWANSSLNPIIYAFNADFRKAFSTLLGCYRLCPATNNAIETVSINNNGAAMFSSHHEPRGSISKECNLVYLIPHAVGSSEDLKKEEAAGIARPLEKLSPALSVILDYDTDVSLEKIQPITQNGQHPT

[1] = Phase 1 open-label one-sequence crossover drug-interaction study: plasma pharmacokinetics of NBI-98854 and metabolites with and without rifampin; format: in vivo, human; conditions: for CL/F / AUC(0-inf) / Cmax / MRT / Tmax / AUC(0-t) / t1/2: N = 11; for CL/F / AUC(0-inf) / Cmax / MRT / AUC(0-t) / t1/2: Mean (SD); for half-life / AUC(0-inf) / Cmax / MRT / Tmax / AUC(0-t): both sexes, human, oral; for half-life: read-out: Mean t1/2 (converted); for AUC(0-inf) / Cmax / MRT / Tmax / AUC(0-t) / t1/2: plasma NBI-98854; for Tmax: Median (mm, max), read-out: tmax; for AUC(0-t): plasma
Description: (§1) Subjects received a single dose of 80 mg valbenazine tosylate on Days 1 and 11 between 0800 and 1000 hours. In addition, subjects received 600 mg rifampin (300 mg×2 capsules) once daily on Days 5 (after collection of the 96-hour PK sample) through 14 between 0830 and 1030 hours. Subjects were required to fast overnight before receiving the study drugs (valbenazine tosylate and rifampin). Subjects were discharged from the study center on Day 15 (final study day or upon early termination) after all safety evaluations and study assessments had been completed.
Safety was assessed throughout the study.
NBI-98854 40 mg capsules were administered orally. The dose of NBI-98854 was based on ditosylate salt (dose expressed as free base). Subjects received a single dose of NBI-98854 80 mg (as two 40 mg capsules) twice during the study, on Days 1 and 11.
Rifampin 300 mg capsules were administered orally. Subjects received a single dose of rifampin 600 mg (as two 300 mg capsules) on Days 5 (after collection of the 96 hour NBI-98854 PK sample) through 14 between 0830 and 1030 hours.
The following plasma PK parameters were calculated only for NBI-98854: • Apparent systemic clearance after oral administration (CL/F) • Apparent volume of distribution during the terminal phase after oral administration (Vz/F)
The last significant figure was rounded up if the digit to the right of it was >5, and was rounded down if the digit to the right of it was […].
The last significant figure was rounded up if the digit to the right of it was ≥5, and was rounded down if the digit to the right of it was ≤4.
(§2) An analysis of variance (ANOVA) model was used to compare AUC0-∞ and Cmax for NBI-98854 administered with rifampin (“test”) versus AUC0-∞ and Cmax for NBI-98854 alone (“reference”). The PK parameters for metabolites of NBI-98854 and rifampin were also evaluated. Safety data were summarized using descriptive statistics.

CYP enzymes = conditions: human
[2] = test system: more than 80 targets (GPCRs, cell-surface monoamine transporters, ion channels including HERG); assay: Cerep multi-target activity screen; conditions: receptors, monoamine transporters, and ion channels
VMAT2 = biological target: T1, VMAT2 (Homo sapiens, UniProt Q05940); assay: Inhibition of [3H]-DHTBZ binding to human platelets
T1 construct: from tissue; host or cells: human platelets (homogenates)
T1 sequence (Q05940 whole entry): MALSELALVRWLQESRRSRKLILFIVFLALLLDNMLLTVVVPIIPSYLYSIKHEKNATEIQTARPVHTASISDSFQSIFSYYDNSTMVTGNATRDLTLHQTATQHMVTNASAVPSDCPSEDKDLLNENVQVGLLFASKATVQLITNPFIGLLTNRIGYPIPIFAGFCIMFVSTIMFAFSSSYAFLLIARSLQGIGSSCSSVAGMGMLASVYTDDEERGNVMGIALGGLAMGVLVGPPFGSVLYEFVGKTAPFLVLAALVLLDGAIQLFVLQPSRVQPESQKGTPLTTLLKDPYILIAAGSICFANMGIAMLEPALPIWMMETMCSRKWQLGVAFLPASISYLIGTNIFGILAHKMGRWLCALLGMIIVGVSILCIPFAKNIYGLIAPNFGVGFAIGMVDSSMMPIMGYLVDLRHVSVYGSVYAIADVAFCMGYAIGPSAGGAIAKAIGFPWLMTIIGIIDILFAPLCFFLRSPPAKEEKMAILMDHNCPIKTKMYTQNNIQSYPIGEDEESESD

Serotonin 5-HT1A = biological target: T2, Serotonin 5-HT1A (Homo sapiens, UniProt P08908); assay: Cerep screen, Serotonin 5-HT1A; conditions: 1 or 10 μM final concentration; n=2
T2 sequence (P08908 1-422): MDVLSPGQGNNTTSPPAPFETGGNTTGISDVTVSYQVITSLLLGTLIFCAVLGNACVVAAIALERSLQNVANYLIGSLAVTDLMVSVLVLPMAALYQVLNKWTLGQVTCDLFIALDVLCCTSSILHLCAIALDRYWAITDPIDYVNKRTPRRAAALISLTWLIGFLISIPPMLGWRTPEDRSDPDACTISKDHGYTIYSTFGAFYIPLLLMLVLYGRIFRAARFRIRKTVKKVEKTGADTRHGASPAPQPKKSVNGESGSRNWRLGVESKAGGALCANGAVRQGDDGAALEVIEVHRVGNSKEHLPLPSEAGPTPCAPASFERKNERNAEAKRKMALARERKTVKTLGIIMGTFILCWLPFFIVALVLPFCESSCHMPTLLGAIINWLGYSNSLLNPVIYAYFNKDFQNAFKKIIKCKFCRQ

[3] = Ptosis, in vivo surrogate measure of pharmacological effect
human VMAT1 transporter = biological target: T3, human VMAT1 transporter (Homo sapiens, UniProt P54219); assay: Uptake in cells expressing VMAT1; format: cell-based; conditions: TBZ, VBZ and metabolites at concentrations up to 10 μM, listed as VBZ
T3 construct: expressed in transfected cells
T3 sequence (P54219 1-525): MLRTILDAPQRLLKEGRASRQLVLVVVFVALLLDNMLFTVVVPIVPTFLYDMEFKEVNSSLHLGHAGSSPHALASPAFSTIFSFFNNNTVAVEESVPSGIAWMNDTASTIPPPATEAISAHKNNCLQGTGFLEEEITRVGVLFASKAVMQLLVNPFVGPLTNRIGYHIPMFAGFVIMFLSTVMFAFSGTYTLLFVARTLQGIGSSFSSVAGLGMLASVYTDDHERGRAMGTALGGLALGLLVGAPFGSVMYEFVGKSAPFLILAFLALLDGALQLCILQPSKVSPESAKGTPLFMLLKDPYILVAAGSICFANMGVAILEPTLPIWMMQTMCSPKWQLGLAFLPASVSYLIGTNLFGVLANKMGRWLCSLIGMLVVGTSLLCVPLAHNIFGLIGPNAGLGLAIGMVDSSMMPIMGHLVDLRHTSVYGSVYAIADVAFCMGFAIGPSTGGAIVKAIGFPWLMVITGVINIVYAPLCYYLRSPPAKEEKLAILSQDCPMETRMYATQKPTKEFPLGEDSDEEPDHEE

[4] = Phase 1 drug-interaction study: safety, treatment-emergent adverse events; format: in vivo, human
Description: as §1, §2

Serotonin 5-HT7 = Serotonin 5-HT7 (Homo sapiens, UniProt P34969); assay: Cerep screen, Serotonin 5-HT7; conditions: 1 or 10 μM final concentration; n=2
Serotonin 5-HT7, sequence (P34969 whole entry): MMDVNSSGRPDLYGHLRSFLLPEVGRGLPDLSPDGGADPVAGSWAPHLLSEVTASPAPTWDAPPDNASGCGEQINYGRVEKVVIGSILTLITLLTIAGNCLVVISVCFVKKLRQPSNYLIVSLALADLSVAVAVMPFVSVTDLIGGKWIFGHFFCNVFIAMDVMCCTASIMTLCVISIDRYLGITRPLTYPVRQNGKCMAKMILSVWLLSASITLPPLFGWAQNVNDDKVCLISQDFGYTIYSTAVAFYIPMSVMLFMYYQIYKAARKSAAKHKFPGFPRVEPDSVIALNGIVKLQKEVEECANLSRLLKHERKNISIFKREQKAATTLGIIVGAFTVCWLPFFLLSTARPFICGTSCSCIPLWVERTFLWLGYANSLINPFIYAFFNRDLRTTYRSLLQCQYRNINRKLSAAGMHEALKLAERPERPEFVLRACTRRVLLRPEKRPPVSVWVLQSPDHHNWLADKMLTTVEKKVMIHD

[5] = NBI-98854 80 mg + rifampin 600 mg
[6] = plasma analyte, NBI-98854 plus rifampin compared with NBI-98854 alone
[7] = Safety Analysis Set, healthy subjects, by treatment period

Compound: COc1cc2c(cc1OC)[C@@H]1C[C@H](O)[C@@H](CC(C)C)CN1CC2 [S,S,S-DHTBZ]
- interaction with D2 receptors (Dopamine D2(s)): interact with D1 and D2 receptors
- interaction with D1 receptors (Dopamine D1): interact with D1 and D2 receptors

Compound: COc1cc2c(cc1OC)[C@H]1C[C@@H](OC(=O)[C@@H](N)C(C)C)[C@H](CC(C)C)CN1CC2 [NBI-98854, (S)-2-amino-3-methyl-butyric acid (2R, 3R,11bR)-3-isobutyl-9,10-dimethoxy-1,3,4,6,7,11b-hexahydro-2H-pyrido[2,1-a]isoquinolin-2-yl ester]
- CL/F [1, 5]: 50.3 (11.4) L/hr
- CL/F ([1]; NBI-98854 80 mg alone): 13.8 (2.77) L/hr
- half-life ([1]; 80 mg, plasma analyte, NBI-98854 alone): 16 h
- AUC(0-inf) [1, 5]: 1700 ng·h/mL
- Cmax [1, 5]: 542 ng/mL
- MRT [1, 5]: 8.7 h
- Tmax [1, 5]: 0.75 h
- AUC(0-inf) ([1]; NBI-98854 80 mg alone): 6020 ng·h/mL
- Cmax ([1]; NBI-98854 80 mg alone): 795 ng/mL
- MRT ([1]; NBI-98854 80 mg alone): 17 h
- Tmax ([1]; NBI-98854 80 mg alone): 0.75 h
- half-life ([1]; plasma analyte, NBI-98854 administered with rifampin): 10 h
- AUC(0-t) ([1]; 80 mg, NBI-98854 80 mg alone, read-out: AUC0-24): 4480 ng·h/mL
- AUC(0-t) ([1]; 80 mg, NBI-98854 80 mg alone, read-out: AUC0-tlast): 5930 ng·h/mL
- AUC(0-t) ([1]; NBI-98854 80 mg + rifampin 600 mg, read-out: AUC0-24): 1510 ng·h/mL
- AUC(0-t) ([1]; NBI-98854 80 mg + rifampin 600 mg, read-out: AUC0-tlast): 1670 ng·h/mL
- t1/2 [1, 5]: 10 (2.1) hours
- t1/2 ([1]; NBI-98854 80 mg alone): 16 (2.3) hours
- decrease in AUC0-∞ [1, 6]: ~70%
- decrease in Cmax [1, 6]: ~30%
- enzymes involved in oxidative metabolism (CYP enzymes): CYP3A4/5 is the major enzyme
- affinity for more than 80 binding sites [2]: little to no affinity
- Affinity Relative to R,R,R-DHTBZ (VMAT2): 45
- pKi mean (SEM) (VMAT2; n=4): 6.82 (0.02)
- percent of control specific binding, Serotonin 5-HT1A (Serotonin 5-HT1A): 26%
- induction of ptosis [3]: induced ptosis in an equivalent manner
- inhibition of uptake through VMAT1 (human VMAT1 transporter): no significant inhibitory activity; also recorded: no significant effect
- Tolerability ([4]; 80 mg in healthy subjects, alone or concomitantly with rifampin): well tolerated
- Subjects who experienced a TEAE: Overall [4, 7]: 6 (50.0) n (%)
- TEAE: Abdominal pain [4, 7]: 1 (8.3) n (%)
- TEAE: Abdominal pain upper [4, 7]: 0 n (%)
- TEAE: Arthropod bite [4, 7]: 1 (8.3) n (%)
- TEAE: Chromaturia [4, 7]: 0 n (%)
- TEAE: Headache [4, 7]: 3 (25.0) n (%)
- TEAE: Hypoaesthesia [4, 7]: 0 n (%)
- TEAE: Non-cardiac chest pain [4, 7]: 0 n (%)
- TEAE: Paraesthesia [4, 7]: 0 n (%)
- TEAE: Vessel puncture site haemorrhage [4, 7]: 1 (8.3) n (%)
- percent of control specific binding, Serotonin 5-HT7 (Serotonin 5-HT7): 4%

Compound: COc1cc2c(cc1OC)[C@@H]1C[C@@H](O)[C@@H](CC(C)C)CN1CC2 [R,S,S-DHTBZ]
- interaction with D2 receptors (Dopamine D2(s)): interact with D1 and D2 receptors
- interaction with D1 receptors (Dopamine D1): interact with D1 and D2 receptors
